Calls of active or inactive are those of the source. The rule behind the calls is not given here.
Tested on: DNA
Assay: Induction of DNA intercalation using nucleosomal DNA (unknown origin) up to 1 mM by CYBR Green dye-based fluorescence assay
Assay type: nucleic-acid assay

Activity: inactive
Structure (SMILES): O=C(O)c1cc(Cc2ccc(O)c(C(=O)O)c2)ccc1O

— ChEMBL document CHEMBL4422660, “Synthesis of NSC 106084 and NSC 14778 and evaluation of their DNMT inhibitory activity” (Bioorg Med Chem Lett, 2019)
